Results: US12514266B2, “Composition containing quercetagetin” (Chenguang Biotech Group Co., Ltd., priority 2020, dated 2026)

How the values were obtained:
[1] = Antioxidant effect in lipids: peroxide value of butter; details: 150 ppm
Description: 5 parts of chicken oil and butter were taken respectively, each of which is 100 grams. Each 3 groups of chicken oil experimental groups and butter experimental groups were set up, and the composition of Example 6 was added according to the addition amount of 4, 6 and 8 ppm respectively; each 1 group of chicken oil control group and butter control group were set up, and ethoxyquin was added in an addition amount of 150 ppm; each 1 group of chicken oil blank group and butter blank group were set up, without adding any additives. The additives in each group were mixed evenly with the lipid, placed in a constant temperature incubator at 40° C., and samples were taken at 0, 3, 7, 14, 21 and 28 days to determine their peroxide value.

[2] = Determination of DPPH free radical scavenging ability; type: biochemical; details: absolute ethanol, 30° C., 30 min, 517 nm
Description: (§1) Each of the composition of Examples 9-17, as well as single-component quercetagetin, 6-hydroxykaempferol, patuletin was taken, and the detection of DPPH and hydroxyl radical scavenging ability was performed. The specific test methods are as follows.
[…], 6-hydroxykaempferol, patuletin, and compositions 9-17 were used to prepare sample solutions with concentrations of 1, 2, 3, 4, 5, and 6 μg/ml in absolute ethanol. Then, DPPH was prepared into a 2×10^−4 mol/L solution with absolute ethanol, and 2 mL of blank and sample solution were accurately absorbed and mixed with 2 mL of DPPH solution, respectively, the resultants were placed in a water bath at 30° C. in the dark for 30 min, and the absorbance A (blank) and Asample (sample) were measured at the wavelength of 517 nm.

[3] = Determination of hydroxyl radical scavenging ability (salicylic acid method); type: biochemical; details: 37° C., 15 min, 510 nm
Description: as §1
Quercetin, 6-hydroxykaempferol, patuletin, and compositions 9-17 were used to prepare sample solutions with concentrations of 100, 150, 200, 250, 300 μg/ml in absolute ethanol. 9 mmol/L salicylic acid-ethanol solution, 9 mmol/L FeSO4 solution and 8.8 mmol/L H2O2 solution were prepared. Then, different samples were added according to the order in the following table, and placed in a water bath at 37° C. for 15 min, and the absorbance at 510 nm was measured.

[4] = Antioxidant effect in fish oil powder (peroxide value); details: 40° C., 28 days; for Peroxide value of fish oil powder with an addition amount of 10 ppm: 10 ppm (based on active ingredients); for Peroxide value of fish oil powder with an addition amount of 100 ppm: 100 ppm (based on active ingredients)
Description: After the antioxidant and fish oil powder were evenly mixed, the resultants were placed in an incubator at 40° C., and samples were taken in 28 days to measure the peroxide value.

DPPH (IC50 μg/ml), half clearance [2] [µg/mL] | Hydroxyl radical scavenging ability (IC50 μg/ml), half clearance [3] [µg/mL] | Compound | peroxide value of butter ([1]; Day 0, 40° C.) [mmol/kg] | peroxide value of butter ([1]; Day 3, 40° C.) [mmol/kg] | peroxide value of butter ([1]; Day 7, 40° C.) [mmol/kg] | peroxide value of butter ([1]; Day 14, 40° C.) [mmol/kg] | peroxide value of butter ([1]; Day 21, 40° C.) [mmol/kg] | peroxide value of butter ([1]; Day 28, 40° C.) [mmol/kg] | Peroxide value of fish oil powder with an addition amount of 10 ppm [4] [mmol/kg] | Peroxide value of fish oil powder with an addition amount of 100 ppm [4] [mmol/kg]
 |  | CCOc1ccc2c(c1)C(C)=CC(C)(C)N2 [Ethoxyquin, ethoxyquin] | 1.41 ± 0.15 | 1.44 ± 0.142 | 1.62 ± 0.104 | 1.66 ± 0.075 | 1.82 ± 0.1 | 2.02 ± 0.197 |  | 
23.62 | 500 | O=c1c(O)c(-c2ccc(O)cc2)oc2cc(O)c(O)c(O)c12 [6-hydroxykaempferol] |  |  |  |  |  |  | 142 | 121
31.98 | 595 | COc1c(O)cc2oc(-c3ccc(O)c(O)c3)c(O)c(=O)c2c1O [Patuletin, patuletin] |  |  |  |  |  |  | 120 | 109

Compound | DPPH (IC50 μg/ml), half clearance [2] [µg/mL] | Hydroxyl radical scavenging ability (IC50 μg/ml), half clearance [3] [µg/mL] | peroxide value of butter ([1]; Day 0, 40° C.) [mmol/kg] | peroxide value of butter ([1]; Day 3, 40° C.) [mmol/kg] | peroxide value of butter ([1]; Day 7, 40° C.) [mmol/kg] | peroxide value of butter ([1]; Day 14, 40° C.) [mmol/kg] | peroxide value of butter ([1]; Day 21, 40° C.) [mmol/kg] | peroxide value of butter ([1]; Day 28, 40° C.) [mmol/kg] | Peroxide value of fish oil powder with an addition amount of 10 ppm [4] [mmol/kg] | Peroxide value of fish oil powder with an addition amount of 100 ppm [4] [mmol/kg]
O=c1c(O)c(-c2ccc(O)c(O)c2)oc2cc(O)c(O)c(O)c12 [Quercetagetin, 3,3,4,5,6,7-hexahydroxyflavone] | 14.82 | 412 |  |  |  |  |  |  | 76.5 | 57.3
